Where two headings read alike, the source gives them in different places.
Test: Single dose bioavailability study in the non-fasted state, 4 mg immediate release carbinoxamine maleate tablet
Assay type: in vivo
Design: Plasma concentration of carbinoxamine: unit not given here
Conditions: nonfasted; for AUC(0-t) / Cmax / MRT / Tmax / half-life / AUC: human, plasma, po, 4 mg; for AUC: read-out: AUC0-
Protocol: A single dose bioavailability study was also undertaken in the non-fasted state using 4 mg immediate release carbinoxamine maleate tablets formulated in an immediate release format. Samples were taken over a forty eight hours period after administration of the drug with heparinized tubes. Breakfast was ingested thirty minutes before administration.
FIG. 2 is a mean plasma concentration-time profile of carbinoxamine after administering the 4 mg carbinoxamine maleate immediate release tablet in the non-fasted state from time 0 to time 48 hours. Graph (A) is the linear ordinate; graph (B) is the log-linear ordinate. FIG. 3 is an overlay of mean plasma concentration-time profiles of carbinoxamine administered under nonfasted and fasted conditions from time 0 to 48 hours, as reported in Example 3. Graph (A) is an overlay in the linear ordinates for the two conditions; graph (B) is an overlay in the log-linear ordinates for the two conditions.

SMILES: CN(C)CCOC(c1ccc(Cl)cc1)c1ccccn1 (stereo not drawn) [carbinoxamine, 2-[(4-chlorophenyl)-2-pyridinylmethoxy]-N,N-dimethylethanamine (Z)-2-butenedioate (1:1)]
- AUC(0-t) (Mean): 212 ng·h/mL
- Cmax (Mean): 12.6 ng/mL
- MRT (Mean): 26.9 h
- Tmax (Mean): 2.67 h
- half-life (Mean): 19 h
- AUC (Mean): 260 ng·h/mL
- AUC(0-t) (subject 101): 175 ng·h/mL
- Cmax (subject 101): 8.11 ng/mL
- MRT (subject 101): 25.6 h
- Tmax (subject 101): 4 h
- half-life (subject 101): 17.1 h
- AUC (subject 101): 206 ng·h/mL
- AUC(0-t) (subject 102): 292 ng·h/mL
- Cmax (subject 102): 18.9 ng/mL
- MRT (subject 102): 31.7 h
- Tmax (subject 102): 2 h
- half-life (subject 102): 22.9 h
- AUC (subject 102): 178 ng·h/mL
- AUC(0-t) (subject 103): 170 ng·h/mL
- Cmax (subject 103): 10.7 ng/mL
- MRT (subject 103): 23.4 h
- Tmax (subject 103): 2 h
- half-life (subject 103): 16.9 h
- AUC (subject 103): 196 ng·h/mL
- Plasma concentration of carbinoxamine (0 h, subject 101T): blq
- Plasma concentration of carbinoxamine (0 h, subject 102T): blq
- Plasma concentration of carbinoxamine (0 h, subject 103T): blq
- Plasma concentration of carbinoxamine (0.5 h, T-Mean): 1415.00
- Plasma concentration of carbinoxamine (0.5 h, subject 101T): 1190.29
- Plasma concentration of carbinoxamine (0.5 h, subject 102T): 1371.47
- Plasma concentration of carbinoxamine (0.5 h, subject 103T): 1683.25
- Plasma concentration of carbinoxamine (1 h, T-Mean): 9391.48
- Plasma concentration of carbinoxamine (1 h, subject 101T): 5017.55
- Plasma concentration of carbinoxamine (1 h, subject 102T): 15948.51
- Plasma concentration of carbinoxamine (1 h, subject 103T): 7208.39
- Plasma concentration of carbinoxamine (2 h, T-Mean): 12274.78
- Plasma concentration of carbinoxamine (2 h, subject 101T): 7279.95
- Plasma concentration of carbinoxamine (2 h, subject 102T): 18873.34
- Plasma concentration of carbinoxamine (2 h, subject 103T): 10671.05
- Plasma concentration of carbinoxamine (3 h, T-Mean): 10596.92
- Plasma concentration of carbinoxamine (3 h, subject 101T): 7409.87
- Plasma concentration of carbinoxamine (3 h, subject 102T): 14981.55
- Plasma concentration of carbinoxamine (3 h, subject 103T): 9399.33
- Plasma concentration of carbinoxamine (4 h, T-Mean): 9957.93
- Plasma concentration of carbinoxamine (4 h, subject 101T): 8113.91
- Plasma concentration of carbinoxamine (4 h, subject 102T): 12868.20
- Plasma concentration of carbinoxamine (4 h, subject 103T): 8891.67
- Plasma concentration of carbinoxamine (5 h, T-Mean): 9064.58
- Plasma concentration of carbinoxamine (5 h, subject 101T): 7450.78
- Plasma concentration of carbinoxamine (5 h, subject 102T): 11670.11
- Plasma concentration of carbinoxamine (5 h, subject 103T): 8072.86
- Plasma concentration of carbinoxamine (6 h, T-Mean): 8311.90
- Plasma concentration of carbinoxamine (6 h, subject 101T): 7053.79
- Plasma concentration of carbinoxamine (6 h, subject 102T): 10649.47
- Plasma concentration of carbinoxamine (6 h, subject 103T): 7232.44
- Plasma concentration of carbinoxamine (8 h, T-Mean): 7184.22
- Plasma concentration of carbinoxamine (8 h, subject 101T): 6458.92
- Plasma concentration of carbinoxamine (8 h, subject 102T): 8834.94
- Plasma concentration of carbinoxamine (8 h, subject 103T): 6258.79
- Plasma concentration of carbinoxamine (12 h, T-Mean): 5363.07
- Plasma concentration of carbinoxamine (12 h, subject 101T): 4676.58
- Plasma concentration of carbinoxamine (12 h, subject 102T): 7186.93
- Plasma concentration of carbinoxamine (12 h, subject 103T): 4225.70
- Plasma concentration of carbinoxamine (24 h, T-Mean): 3869.18
- Plasma concentration of carbinoxamine (24 h, subject 101T): 3297.38
- Plasma concentration of carbinoxamine (24 h, subject 102T): 5400.86
- Plasma concentration of carbinoxamine (24 h, subject 103T): 2909.31
- Plasma concentration of carbinoxamine (36 h, T-Mean): 2453.59
- Plasma concentration of carbinoxamine (36 h, subject 101T): 2197.69
- Plasma concentration of carbinoxamine (36 h, subject 102T): 3336.26
- Plasma concentration of carbinoxamine (36 h, subject 103T): 1826.88
- Plasma concentration of carbinoxamine (48 h, T-Mean): 1650.44
- Plasma concentration of carbinoxamine (48 h, subject 101T): 1249.68
- Plasma concentration of carbinoxamine (48 h, subject 102T): 2616.93
- Plasma concentration of carbinoxamine (48 h, subject 103T): 1084.70
